Experimental data taken from patent publication US11376337B2, “Expression of neuropeptides” (California Institute of Technology, priority 2017, dated 2022).
Entries after “also recorded” stand apart in the source; their conditions may differ.

Key:
[1] = literature statement; cited from earlier work
Nk3R [2] = target: T1, Nk3R (Homo sapiens, UniProt P29371); conditions: trials for schizophrenia, bipolar and panic disorder; cited from earlier work
T1 sequence (P29371 1-465): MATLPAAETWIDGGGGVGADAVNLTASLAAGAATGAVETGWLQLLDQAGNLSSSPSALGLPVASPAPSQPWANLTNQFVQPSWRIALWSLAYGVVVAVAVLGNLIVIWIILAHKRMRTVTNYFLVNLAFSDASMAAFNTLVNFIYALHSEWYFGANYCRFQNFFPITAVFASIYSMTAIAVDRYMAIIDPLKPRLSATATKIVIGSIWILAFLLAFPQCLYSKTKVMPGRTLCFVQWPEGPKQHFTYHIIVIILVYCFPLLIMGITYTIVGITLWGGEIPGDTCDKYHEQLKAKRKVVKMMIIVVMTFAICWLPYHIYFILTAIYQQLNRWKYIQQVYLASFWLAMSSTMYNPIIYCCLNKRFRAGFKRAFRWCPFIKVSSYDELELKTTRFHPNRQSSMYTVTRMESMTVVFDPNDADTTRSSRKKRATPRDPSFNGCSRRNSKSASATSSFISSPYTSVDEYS

Nk3R [3] = target: T2, Nk3R (Mus musculus, UniProt P47937); experiment: Social interaction assay, osanetant; conditions: SIS mice; acute systemic osanetant
T2 sequence (P47937 1-452): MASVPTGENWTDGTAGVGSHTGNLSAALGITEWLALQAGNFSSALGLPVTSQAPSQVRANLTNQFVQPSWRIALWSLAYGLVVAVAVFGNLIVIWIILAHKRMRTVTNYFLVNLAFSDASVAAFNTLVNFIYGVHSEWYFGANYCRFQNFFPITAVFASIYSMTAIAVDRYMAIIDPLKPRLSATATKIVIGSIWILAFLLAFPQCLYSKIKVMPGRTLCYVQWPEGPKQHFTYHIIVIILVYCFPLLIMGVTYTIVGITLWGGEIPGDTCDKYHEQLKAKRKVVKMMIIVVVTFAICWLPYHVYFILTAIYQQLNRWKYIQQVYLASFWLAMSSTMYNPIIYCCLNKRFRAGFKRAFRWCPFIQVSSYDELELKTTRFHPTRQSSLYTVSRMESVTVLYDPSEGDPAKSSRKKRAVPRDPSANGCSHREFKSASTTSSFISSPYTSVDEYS

Nk3R [4] = target: T2, Nk3R; experiment: Acoustic startle response, osanetant; conditions: SIS mice; acute systemic osanetant
Nk3R [5] = target: T2, Nk3R; experiment: Looming disk assay (freezing), osanetant; conditions: for acute (and thereby persistent) freezing to innate threatening stimulus (looming disk): osanetant injection into CeA
Nk3R [6] = target: T2, Nk3R; experiment: Resident intruder assay (aggression), osanetant; conditions: for SIS-induced aggression: osanetant microinfusion into DMH
Nk3R [7] = target: T2, Nk3R; experiment: Tail rattles during looming disk assay, osanetant; conditions: SIS mice; acute systemic osanetant
Nk3R [8] = target: T2, Nk3R; experiment: Tone fear conditioning test (freezing), osanetant; format: in vivo, mice; parameters: endogenous in cells; host or cells: living mice (wild-type C57Bl6/N males, Charles River); systemic i.p. dosing or microinfusion into dBNSTa, DMH, CeA; conditions: for acute (and thereby persistent) freezing to conditioned threatening stimulus (tone): osanetant injection into CeA; for SIS-induced persistent freezing to conditioned tone: osanetant microinfusion into dBNSTa, 375 ng per site, 20 min before test
Nk3R [9] = target: T2, Nk3R; experiment: Shock reactivity (footshock), osanetant; format: in vivo, mice; parameters: endogenous in cells; host or cells: living mice (wild-type C57Bl6/N males, Charles River); systemic i.p. dosing or microinfusion into dBNSTa, DMH, CeA
Nk3R [10] = target: T2, Nk3R; experiment: Return to housing with pre-isolation cagemates after SIS, osanetant; format: in vivo, mice; parameters: endogenous in cells; host or cells: living mice (wild-type C57Bl6/N males, Charles River); systemic i.p. dosing or microinfusion into dBNSTa, DMH, CeA; conditions: osanetant during SIS; data not shown
[11] = SIS mice, osanetant 5 mg/kg i.p. 20 min prior to assay
[12] = SIS mice, osanetant microinfusion into DMH
[13] = osanetant 5 mg/kg i.p. 20 min prior to assay, during stimulus
[14] = osanetant daily during two-week SIS, tested off-drug
[15] = SIS mice, osanetant injection into CeA
[16] = SIS mice, osanetant microinfusion into dBNSTa

In the case of `CC(=O)N(C)C1(c2ccccc2)CCN(CCC[C@]2(c3ccc(Cl)c(Cl)c3)CCCN(C(=O)c3ccccc3)C2)CC1` [osanetant], the “crossing of the blood-brain barrier” value [1] is listed as “crosses the blood-brain barrier”, the “efficacy in clinical trials” value (Nk3R [2]) is listed as “lack of efficacy” and the “tolerability in clinical trials” value (Nk3R [2]) is listed as “well tolerated”. For the same compound, the “SIS-induced decreased social interaction (time in social zone)” value (Nk3R [3]) was “blocked; also recorded: attenuated”, the “SIS-enhanced responding in acoustic startle assay” value (Nk3R [4]) was “blocked; also recorded: attenuated” and the “SIS-induced persistent (post) freezing to looming disk” value (Nk3R [5]; [11]) was “blocked; also recorded: attenuated”. For the same compound, the “acute (and thereby persistent) freezing to innate threatening stimulus (looming disk)” value (Nk3R [5]; SIS mice) was “reduced”, the “acute (and thereby persistent) freezing to innate threatening stimulus (looming disk)” value (Nk3R [5]; SIS mice, listed as Osanetant) was “selectively blocked” and the “SIS-induced persistent freezing to looming disk” value (Nk3R [5]; SIS mice, osanetant microinfusion into ACC) was “failed to yield significant effects; also recorded: No significant effects”. For the same compound, the “persistent responses to looming stimulus” value (Nk3R [5]; [12]) was “had no effect”, the “SIS-induced persistent freezing to looming disk” value (Nk3R [5]; SIS mice, osanetant microinfusion into dBNSTa, 375 ng per site, 20 min before test) was “selectively inhibited” and the “SIS-induced persistent freezing to looming disk” value (Nk3R [5]; SIS mice, osanetant microinfusion into dBNSTa, 375 ng per site, 20 min before test, listed as Osanetant) was “selectively blocked”. For the same compound, the “SIS-induced persistent freezing to looming disk” value (Nk3R [5]; SIS mice, osanetant microinfusion into striatum) was “failed to yield significant effects; also recorded: No significant effects”, the “freezing during presentation of looming disk” value (Nk3R [5]; [13]) was “no significant differences” and the “persistent freezing to looming disk” value (Nk3R [5]; [14]) was “prevented”. The “aggression promoted by sexual experience” value (Nk3R [6]; 2 weeks co-habitation with a female, no isolation, systemic osanetant) was “had no effect”, the SIS-enhanced aggression (Nk3R [6]; [11]) was “blocked; also recorded: strongly reduced” and the aggression (Nk3R [6]; [15]) was “unaffected”. The SIS-induced aggression (Nk3R [6]; SIS mice) was “abolished”, the SIS-induced aggression (Nk3R [6]; SIS mice, listed as Osanetant) was “selectively blocked” and the aggression (Nk3R [6]; [16]) was “no effect”. The SIS-enhanced aggression (Nk3R [6]; [14]) was “prevented”, the “SIS-induced increased tail rattling” value (Nk3R [7]) was “blocked; also recorded: attenuated” and the “SIS-induced persistent (post) freezing to fear-conditioned tone” value (Nk3R [8]; [11]) was “blocked; also recorded: attenuated”. For the same compound, the “acute (and thereby persistent) freezing to conditioned threatening stimulus (tone)” value (Nk3R [8]; SIS mice) was “reduced”, the “acute (and thereby persistent) freezing to conditioned threatening stimulus (tone)” value (Nk3R [8]; SIS mice, listed as Osanetant) was “selectively blocked” and the “persistent responses to conditioned tone” value (Nk3R [8]; [12]) was “had no effect”. For the same compound, the “SIS-induced persistent freezing to conditioned tone” value (Nk3R [8]; SIS mice) was “selectively inhibited”, the “SIS-induced persistent freezing to conditioned tone” value (Nk3R [8]; SIS mice, listed as Osanetant) was “selectively blocked” and the “freezing during presentation of fear-conditioned tone” value (Nk3R [8]; [13]) was “no significant differences”. For the same compound, the “persistent freezing to fear conditioned tone” value (Nk3R [8]; [14]) was “prevented”, the “SIS-induced increased shock reactivity” value (Nk3R [9]; [11]) was “blocked” and the “reactivity to footshock (SIS-enhanced)” value (Nk3R [9]; [15]) was “reduced; also recorded: blocked”. For the same compound, the responses to footshock (Nk3R [9]; [12]) was “had no effect”, the shock reactivity (Nk3R [9]; [16]) was “no effect” and the “SIS-induced increase in shock reactivity” value (Nk3R [9]; [14]) was “a trend to protection; also recorded: reduced, but not significantly”. The “fighting after return to housing with pre-isolation cagemates” value (Nk3R [10]) was “without any subsequent fighting observed”.
